In series [1] the test system is MT-4 cells. The experiment in a line: Toxicity for MT-4 cells (growth inhibition). The format is cell-based, human. Conditions: concentrations up to 1 mM.
The subject of series [2] is HIV. The series is described as follows: Inhibition of HIV cytopathic toxicity in MT-4 cells (MTS cell viability). The format is cell-based. The note with it: virus from pNL4-3 at 100×TCID50, 7 days, MTS assay (FIG. 3). How it is done:
The ability of B-darunavir to inhibit the cytopathic toxicity of HIV was determined by standard methods (11). Briefly, both human lymphocyte cell line MT-4 and plasmid pNL4-3, which directs the production of infectious virions (12), were obtained from the NIH AIDS Reagent Program. […] Then, MT-4 cells were transfected with plasmid pNL4-3. Maximal virus production was detected on Day 6 post-transfection. Viral inhibition assays were conducted with 25,000 MT-4 cells in 200 μL of RPMI medium containing fetal bovine serum (10% v/v). Infections were conducted with virus at 100×TCID50 by resuspending pelleted cells in 500 μL of virus-containing medium and incubating for 4 h prior to plating with B-darunavir. After 7 days, the loss of HIV cytopathic toxicity was assessed by measuring cell viability using the MTS assay from Promega (Madison, Wis.).

For series [3], the target named is T1, HIV-1 protease (Human immunodeficiency virus type 1 group M subtype B, UniProt P03367, C567A/C595A/L533I/L563I/Q507K).
T1 construct: Double-stranded, linear DNA encoding HIV-1 protease; 8xHis (self-cleavable) (N, cleaved yes); made in house
The experiment in a line: biochemical.
Method: This peptide was used as a fluorogenic substrate for HIV protease by monitoring the fluorescence of the Edans group (5-((2-aminoethyl)amino)naphthalene-1-sulfonic acid) upon substrate hydrolysis and separation from the quenching Dabcyl group (4-((4-(dimethylamino)phenyl)azo)benzoic acid, succinimidyl ester. [6] Substrate was dissolved at 1 mM by sonication in DMF containing TFA (0.1% v/v). Stock solutions of each putative HIV protease inhibitor were generated by dissolving the inhibitor in DMF to a concentration of 50 mM and diluting in DMF to ˜100×stocks of the final assay concentrations. Assays were performed in 50 mM sodium acetate buffer, pH 5.0, containing NaCl (100 mM). Wells in a microtiter plate were charged initially with inhibitor (various concentrations) and substrate (final concentration: 10 μM). HIV protease was then added (final concentration: 50-150 μM). Reaction velocities in the assay solutions (total volume: 200 μL) were measured in quadruplicate at 7-9 inhibitor concentrations including no-inhibitor and no-enzyme controls.

Here are results for 2 molecules from patent US9738664B2, “Boronic acid inhibitors of HIV protease” (WISCONSIN ALUMNI RESEARCH FOUNDATION, priority 2014, dated 2017).

Some results are limits rather than exact numbers.

`CC(C)CN(C[C@@H](O)[C@H](Cc1ccccc1)NC(=O)O[C@H]1CO[C@H]2OCC[C@H]21)S(=O)(=O)c1ccc(B(O)O)cc1` [B-Darunavir (9)]: in series [1], the “inhibition of the growth of MT-4 cells (toxicity)” value was “not to cause a significant inhibition of the growth of MT-4 cells”. The “concentration that inhibits the toxicity of HIV for human lymphocytes” value in series [2] is no less than 100 nM.

Regarding `CC(C)CN(C[C@@H](O)[C@H](Cc1ccccc1)NC(=O)O[C@H]1CCOC1)S(=O)(=O)c1ccc(B(O)O)cc1` [B-Amprenavir (6)], the affinity in series [3], expressed as Ki, was 2.1 ± 0.3 pM.
